Consider two molecules from patent US20160045440A1, “FORMULATION OF AMORPHOUS CALCIUM L-5-METHYLTETRAHYDROFOLATE (L-5-MTHF-Ca)” (CHEMO RESEARCH, S.L., priority 2013, published 2016).

Data set [1] can be described thus: Stability of amorphous calcium L-5-methylfolate and cysteine at weight ratios 1:0 to 1:33 on storage. Type of data set: physicochemical.
Data set [2] is described as follows: Stability of powder mixtures of amorphous calcium L-5-methylfolate with stabilizing agents (1:10) on storage. As to conditions: 5° C. for one month; ALC:stabilizing agent 1:10. Type of data set: physicochemical. The protocol:
Powder mixtures of amorphous calcium L-5-methylfolate with each of the stabilizing agents disclosed in the following table were prepared. In all the cases, the mixture contained a weight amount of calcium L-5-methylfolate to stabilizing agent of 1:10.

The conditions of data set [3]: storage time of one month at 40° C.; cited from earlier work.

For the molecule `CN1c2c(nc(N)[nH]c2=O)NC[C@@H]1CNc1ccc(C(=O)N[C@@H](CCC(=O)[O-])C(=O)[O-])cc1.[Ca+2]` [Amorphous Calcium L-5-methylfolate (ALC), N-{4-[[((6S)-2-amino-1,4,5,6,7,8-hexahydro-5-methyl-4-oxo-6-pteridinyl)methyl]amino]benzoyl}-L-glutamic acid, calcium salt], in data set [1] (5° C. for 1 month), the “Assay (%)” value was 99.59%, the “Related substances (%) D-Mefox” value is reported as 0.42%, the “Related substances (%) HO-MeTHFA” value turned out to be 1.80% and the “Related substances (%) L-Mefox” value is given as 2.52%. In addition, the “Related substances (%) TOTAL impurities” value in data set [1] (5° C. for 1 month) was 5.59%. Also, in data set [1] (5° C. for 3 months), the “Assay (%)” value came out at 96.39%, the “Related substances (%) D-Mefox” value was 0.32%, the “Related substances (%) HO-MeTHFA” value came to 1.34% and the “Related substances (%) L-Mefox” value was determined as 2.74%. Further, the “Related substances (%) TOTAL impurities” value in data set [1] (5° C. for 3 months) came out at 5.74%. In data set [1] (25° C./60% HR for 1 month), the “Assay (%)” value stood at 89.13%, the “Related substances (%) D-Mefox” value is recorded as 0.71%, the “Related substances (%) HO-MeTHFA” value stood at 1.75% and the “Related substances (%) L-Mefox” value is listed as 4.68%. In data set [1] (25° C./60% HR for 1 month), the “Related substances (%) TOTAL impurities” value was 9.19%. Also, in data set [1] (25° C./60% HR for 3 months), the “Assay (%)” value came to 84.03%, the “Related substances (%) D-Mefox” value is reported as 0.57%, the “Related substances (%) HO-MeTHFA” value is 1.44% and the “Related substances (%) L-Mefox” value is recorded as 6.49%. Further, in data set [1] (25° C./60% HR for 3 months), the “Related substances (%) TOTAL impurities” value was found to be 11.95%. In data set [1] (40° C./75% HR for 1 month), the “Assay (%)” value came out at 81.95%, the “Related substances (%) D-Mefox” value was found to be 0.93%, the “Related substances (%) HO-MeTHFA” value is given as 1.84% and the “Related substances (%) L-Mefox” value came out at 8.97%. Also, the “Related substances (%) TOTAL impurities” value in data set [1] (40° C./75% HR for 1 month) worked out at 15.57%. In addition, in data set [2], the “Assay (%) of Calcium L-5-methylfolate that remains in the mixture” value stood at 91.02%, the “Related substances (%) D-Mefox” value was found to be 0.50%, the “Related substances (%) HO-MeTHFA” value is given as 1.18% and the “Related substances (%) L-Mefox” value amounted to 4.27%. Besides, in data set [2], the “Related substances (%) TOTAL impurities” value came to 8.0%.
On to `CN1c2c(nc(N)[nH]c2=O)NC[C@@H]1CNc1ccc(C(=O)N[C@@H](CCC(=O)[O-])C(=O)[O-])cc1.[Ca+2]` [Metafolin, Calcium L-5-methylfolate], for which, in data set [3], the “Metafolin that remains in the compositions obtained by granulation” value is reported as 60%.
